Biological target: T1, TMEM16A (Homo sapiens, UniProt Q5XXA6, DEL476-501)
T1 construct: expressed in transfected cells
T1 sequence (Q5XXA6 with tags, fused parts or gaps isoform Q5XXA6-5 DEL539-564): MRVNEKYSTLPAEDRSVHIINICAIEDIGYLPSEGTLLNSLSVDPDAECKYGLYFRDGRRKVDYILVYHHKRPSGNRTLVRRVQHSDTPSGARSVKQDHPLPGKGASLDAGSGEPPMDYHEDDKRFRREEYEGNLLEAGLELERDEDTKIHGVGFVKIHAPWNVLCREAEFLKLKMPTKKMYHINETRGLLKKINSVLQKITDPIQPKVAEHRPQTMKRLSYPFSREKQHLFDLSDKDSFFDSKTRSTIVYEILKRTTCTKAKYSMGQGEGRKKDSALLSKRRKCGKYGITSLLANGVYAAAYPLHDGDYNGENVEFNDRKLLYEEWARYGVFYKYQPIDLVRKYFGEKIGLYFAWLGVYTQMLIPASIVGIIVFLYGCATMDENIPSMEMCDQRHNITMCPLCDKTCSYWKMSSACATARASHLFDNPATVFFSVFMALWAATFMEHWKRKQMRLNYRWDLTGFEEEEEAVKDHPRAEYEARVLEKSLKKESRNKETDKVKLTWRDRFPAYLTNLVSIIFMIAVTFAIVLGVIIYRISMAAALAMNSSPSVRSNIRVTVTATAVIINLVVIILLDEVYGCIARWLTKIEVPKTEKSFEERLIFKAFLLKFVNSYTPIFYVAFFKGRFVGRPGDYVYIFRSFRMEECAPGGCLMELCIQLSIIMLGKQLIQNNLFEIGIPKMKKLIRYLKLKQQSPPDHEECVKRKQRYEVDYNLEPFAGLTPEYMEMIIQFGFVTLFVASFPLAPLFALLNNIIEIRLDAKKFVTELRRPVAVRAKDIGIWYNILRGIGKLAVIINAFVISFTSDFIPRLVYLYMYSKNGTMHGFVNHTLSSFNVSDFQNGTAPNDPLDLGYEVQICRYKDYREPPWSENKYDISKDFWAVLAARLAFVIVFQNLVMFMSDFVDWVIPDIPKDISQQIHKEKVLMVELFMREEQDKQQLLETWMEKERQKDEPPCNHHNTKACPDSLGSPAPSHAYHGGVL
Experiment: Whole-cell patch-clamp of TMEM16A-expressing FRT cells
Type: cell-based
Method: FIG. 4A-D. Patch-clamp analysis of Ca^2+ requirements for TMEM16A activation by Eact and Fact. FIG. 4A. Apical membrane current measured in TMEM16A-expressing FRT cells. ER calcium stores were depleted by CPA (50 μM, 30 min) and 0 CaCl2 in bath. ATP (100 μM), Fact (10 μM), Eact (10 μM) and T16Ainh-A01 (10 μM) were added as indicated. FIG. 4B and FIG. 4C. Whole-cell TMEM16A currents were recorded at a holding potential at 0 mV, and pulsing to voltages between ±80 mV (in steps of 20 mV) in the absence and presence of 3 μM Eact or 10 μM Fact. Free calcium concentration of pipette solutions were clamped at 0 μM, 0.07 μM, 0.15 μM, and 1 μM. Eact (3 μM) or Fact (10 μM) added as indicated. (right) Current/voltage (I/V) plots of mean currents at the middle of each voltage pulse. The Ca^2+ concentration is indicated to the right. FIG. 4D. TMEM16A inhibited by 10 μM T16Ainh-A01 after stimulation by Eact or Fact.
Whole-cell recordings were made at room temperature on TMEM16A-expressing FRT cells and human submandibular A253 cells. The bath solution contained (in mM): 140 NMDG-Cl, 1 CaCl2, 1 MgCl2, 10 glucose and 10 HEPES (pH 7.4). The pipette solution contained (in mM): 130 CsCl, 0.5 EGTA, 1 MgCl2, 1 Tris-ATP, and 10 HEPES (pH 7.2). Different concentrations of free calcium in pipette solution were obtained by replacing 0.5 mM EGTA with 5 mM EGTA, and using different amounts of CaCl2 in the pipette solution. Pipettes were pulled from borosilicate glass and had resistances of 3-5 MΩ after fire polishing. Seal resistances were between 3 and 10 GΩ. After establishing the whole-cell configuration, TMEM16A was activated by 100 μM ATP, TMEM16A activators or different concentrations of free calcium in the pipette solution. Whole-cell currents were elicited by applying hyperpolarizing and depolarizing voltage pulses from a holding potential of 0 mV to potentials between −100 mV and +100 mV in steps of 20 mV. Recordings were made at room temperature using an Axopatch-200B (Axon Instruments). Currents were digitized with a Digidata 1440A converter (Axon Instruments), filtered at […].
The Ca^2+ dependence of TMEM16A activation by Eact and Fact was investigated. […] Whole-cell currents were then recorded by patch-clamp at different cytoplasmic (pipette) [Ca^2+]. […] (FIG. 4B, bottom and right). […] Thus, Eact and Fact activate TMEM16A by different mechanisms: Eact as a largely Ca^2+-independent ‘activator’, and Fact as a ‘potentiator’ of Ca^2+ activation.

Row | block of Cl^− currents produced by Eact or Fact (10 μM T16Ainh-A01) | SMILES | maximum TMEM16A Cl^− current at high [Ca^2+] (3 μM Eact or 10 μM Fact) | whole-cell Cl^− current at submaximal Ca^2+ (compared to no compound, 10 μM Fact) | whole-cell TMEM16A Cl^− current at 0 Ca^2+ (pipette 0 Ca^2+, 3 μM Eact or 10 μM Fact)
1 | – | O=C(Nc1ccc(Br)cc1)c1cccc(-n2cnnn2)c1 [Fact, N-(4-bromophenyl)-3-(1H-tetrazol-1-yl)benzamide] | not further increased | increased Cl^− current | did not product Cl^− current
2 | completely blocked | CCc1c(C)nc(SCC(=O)Nc2nc(-c3ccc(OC)cc3)cs2)[nH]c1=O [T16Ainh-A01, reference compound] | – | – | –

Source: patent publication US9790218B2, “Small molecule activators of calcium-activated chloride channels and methods of use” (The Regents of the University of California, priority 2011, dated 2017)
